Experimental findings from US10004701B2, “Methods and compositions for treating infection” (UNIVERSITY OF ROCHESTER, priority 2012, dated 2018) are described below.

Where a name gives a salt, the structure may show the parent alone. Read-outs that look alike come from different tables or passages of the source.

Common to all, as to test: AK assay 384-well format, Prestwick library screening
One assay deals with P. aeruginosa. In kind it is cell-based, Pseudomonas aeruginosa. The following applies: 50 μM final drug concentration; for fold induction at 50 µM: Pseudomonas aeruginosa, 3 h.
In a further assay the test system is K. pneumoniae. Format: cell-based, Klebsiella pneumoniae. The settings on record: 50 μM final drug concentration; for fold induction at 50 µM: Klebsiella pneumoniae, 3 h.
The subject of another assay is E. coli. In kind it is cell-based, Escherichia coli. The settings on record: 50 μM final drug concentration; for fold induction at 50 µM: Escherichia coli, 3 h.
The next assay deals with E. cloacae. Format: cell-based, Enterobacter cloacae. The settings on record: 50 μM final drug concentration; for fold induction at 50 µM: Enterobacter cloacae, 3 h.
Assay [1] deals with S. aureus strain USA300-0114. Format: cell-based, Staphylococcus aureus. The following applies: 50 μM final drug concentration; for fold induction at 50 µM: Staphylococcus aureus, USA300, 3 h.
In assay [2] the test system is A. baumannii strain 98-37-09. Format: cell-based, Acinetobacter baumannii. The following applies: 50 μM final drug concentration; for fold induction at 50 µM: Acinetobacter baumannii, 983709, 3 h.
A further assay has as its system E. faecium. Format: cell-based, Enterococcus faecium. The settings on record: 50 μM final drug concentration; for fold induction at 50 µM: Enterococcus faecium, 3 h.
Where [3] appears, read: planktonic, […], read-out: AK-based Prestwick Library Screening Results, P. aeruginosa (fold increase in extracellular AK activity).
Where [4] appears, read: planktonic, […], read-out: AK-based Prestwick Library Screening Results, K. pneumoniae (fold increase in extracellular AK activity).
[5] abbreviates: planktonic, […], read-out: AK-based Prestwick Library Screening Results, E. coli (fold increase in extracellular AK activity).
Setting [6] is: planktonic, […], read-out: AK-based Prestwick Library Screening Results, E. cloacae (fold increase in extracellular AK activity).
Setting [7] is: planktonic, […], read-out: AK-based Prestwick Library Screening Results, S. aureus (fold increase in extracellular AK activity).
Setting [8] is: planktonic, […], read-out: AK-based Prestwick Library Screening Results, A. baumannii (fold increase in extracellular AK activity).
Where [9] appears, read: planktonic, […], read-out: AK-based Prestwick Library Screening Results, E. faecium (fold increase in extracellular AK activity).
The mark [10] stands for this setting: planktonic, cutoff for positive 3-fold increase.

For the compound `COc1ccn(C)c(=O)c1C#N` [Ricinine], the fold induction at 50 µM with P. aeruginosa (setting [3]) stood at 0.7; with K. pneumoniae (setting [4]), 0.8; with E. coli (setting [5]), 0.8; in the assay with E. cloacae (setting [6]) it was 1.3; in assay [1] (setting [7]), 0.9; in assay [2] (setting [8]) it was 0.8. Further, the fold induction at 50 µM with E. faecium (setting [9]) was 0.9.
As for `CCC1(CC)C(=O)C=CNC1=O` [Pyrithyldione], the fold induction at 50 µM with P. aeruginosa (setting [3]) was found to be 0.6; with K. pneumoniae (setting [4]), 0.6; in the assay with E. coli (setting [5]), 0.7; in the assay with E. cloacae (setting [6]) it was 0.7; in assay [1] (setting [7]) it was 0.6; in assay [2] (setting [8]) it was 0.5. Moreover, the fold induction at 50 µM in the assay with E. faecium (setting [9]) worked out at 0.8.
Take `CC12CC3CC(C)(C1)CC(N)(C3)C2` [Memantine Hydrochloride]: the fold induction at 50 µM turned out to be 0.6 with P. aeruginosa (planktonic P. aeruginosa, positive cutoff 3-fold increase, read-out: AK-based Prestwick library screening result, P. aeruginosa (fold increase in extracellular AK activity)); 0.5 in the assay on K. pneumoniae (planktonic K. pneumoniae, positive cutoff 3-fold increase, read-out: AK-based Prestwick library screening result, K. pneumoniae (fold increase in extracellular AK activity)); 0.6 with E. coli (planktonic E. coli, positive cutoff 3-fold increase, read-out: AK-based Prestwick library screening result, E. coli (fold increase in extracellular AK activity)); 0.7 with E. cloacae (planktonic E. cloacae, positive cutoff 3-fold increase, read-out: AK-based Prestwick library screening result, E. cloacae (fold increase in extracellular AK activity)); 0.6 in assay [1] (planktonic S. aureus, positive cutoff 3-fold increase, read-out: AK-based Prestwick library screening result, S. aureus (fold increase in extracellular AK activity)); 0.7 in assay [2] (planktonic A. baumannii, positive cutoff 3-fold increase, read-out: AK-based Prestwick library screening result, A. baumannii (fold increase in extracellular AK activity)). Further, the fold induction at 50 µM in the assay on E. faecium (planktonic E. faecium, positive cutoff 3-fold increase, read-out: AK-based Prestwick library screening result, E. faecium (fold increase in extracellular AK activity)) was determined as 0.9.
With `CC(C)NCC(O)c1ccc2ccccc2c1` (centres unmarked) [Pronethalol hydrochloride], the fold induction at 50 µM was determined as 0.6 in the assay with P. aeruginosa (cutoff for positive-scoring molecules 3-fold increase, read-out: AK-based Prestwick Library Screening Results, P. aeruginosa (fold increase in extracellular AK activity)); 0.6 with K. pneumoniae (cutoff for positive-scoring molecules 3-fold increase, read-out: AK-based Prestwick Library Screening Results, K. pneumoniae (fold increase in extracellular AK activity)); 0.7 in the assay with E. coli (cutoff for positive-scoring molecules 3-fold increase, read-out: AK-based Prestwick Library Screening Results, E. coli (fold increase in extracellular AK activity)); 0.9 with E. cloacae (cutoff for positive-scoring molecules 3-fold increase, read-out: AK-based Prestwick Library Screening Results, E. cloacae (fold increase in extracellular AK activity)); 0.6 in assay [1] (cutoff for positive-scoring molecules 3-fold increase, read-out: AK-based Prestwick Library Screening Results, S. aureus (fold increase in extracellular AK activity)); 0.6 in assay [2] (cutoff for positive-scoring molecules 3-fold increase, read-out: AK-based Prestwick Library Screening Results, A. baumannii (fold increase in extracellular AK activity)). In addition, in the assay with E. faecium (cutoff for positive-scoring molecules 3-fold increase, read-out: AK-based Prestwick Library Screening Results, E. faecium (fold increase in extracellular AK activity)), the fold induction at 50 µM amounted to 0.9.
`COC(=O)[C@H]1[C@H]2C[C@H]3c4[nH]c5ccccc5c4CCN3C[C@H]2CC[C@@H]1O` [Rauwolscine hydrochloride]: the fold induction at 50 µM in the assay with P. aeruginosa (planktonic P. aeruginosa, cutoff for positive-scoring molecules 3-fold increase, read-out: AK-based Prestwick Library Screening Results, P. aeruginosa (increase in extracellular AK activity)) amounted to 0.6; with K. pneumoniae (planktonic K. pneumoniae, cutoff for positive-scoring molecules 3-fold increase, read-out: AK-based Prestwick Library Screening Results, K. pneumoniae (increase in extracellular AK activity)), 0.6; with E. coli (planktonic E. coli, cutoff for positive-scoring molecules 3-fold increase, read-out: AK-based Prestwick Library Screening Results, E. coli (increase in extracellular AK activity)), 0.7; in the assay with E. cloacae (planktonic E. cloacae, cutoff for positive-scoring molecules 3-fold increase, read-out: AK-based Prestwick Library Screening Results, E. cloacae (increase in extracellular AK activity)), 0.8; in assay [1] (planktonic S. aureus, cutoff for positive-scoring molecules 3-fold increase, read-out: AK-based Prestwick Library Screening Results, S. aureus (increase in extracellular AK activity)), 0.7; in assay [2] (planktonic A. baumannii, cutoff for positive-scoring molecules 3-fold increase, read-out: AK-based Prestwick Library Screening Results, A. baumannii (increase in extracellular AK activity)), 0.8. In addition, in the assay on E. faecium (planktonic E. faecium, cutoff for positive-scoring molecules 3-fold increase, read-out: AK-based Prestwick Library Screening Results, E. faecium (increase in extracellular AK activity)), the fold induction at 50 µM amounted to 1.
Take `CN(C)[C@@H]1C(O)=C(C(N)=O)C(=O)[C@@]2(O)C(O)=C3C(=O)c4c(O)cccc4[C@@](C)(O)[C@H]3[C@H](O)[C@@H]12` [Oxytetracycline dihydrate]: the fold induction at 50 µM with P. aeruginosa (planktonic P. aeruginosa, 384-well, cutoff for positive-scoring molecules 3-fold increase, read-out: AK-based Prestwick Library Screening Results: P. aeruginosa (increase in extracellular AK activity)) is 0.5; in the assay on K. pneumoniae (planktonic K. pneumoniae, 384-well, cutoff for positive-scoring molecules 3-fold increase, read-out: AK-based Prestwick Library Screening Results: K. pneumoniae (increase in extracellular AK activity)), 0.2; with E. coli (planktonic E. coli, 384-well, cutoff for positive-scoring molecules 3-fold increase, read-out: AK-based Prestwick Library Screening Results: E. coli (increase in extracellular AK activity)) it was 1; in the assay with E. cloacae (planktonic E. cloacae, 384-well, cutoff for positive-scoring molecules 3-fold increase, read-out: AK-based Prestwick Library Screening Results: E. cloacae (increase in extracellular AK activity)), 1.1; in assay [1] (planktonic S. aureus, 384-well, cutoff for positive-scoring molecules 3-fold increase, read-out: AK-based Prestwick Library Screening Results: S. aureus (increase in extracellular AK activity)), 3.4; in assay [2] (planktonic A. baumannii, 384-well, cutoff for positive-scoring molecules 3-fold increase, read-out: AK-based Prestwick Library Screening Results: A. baumannii (increase in extracellular AK activity)), 5.3. In addition, the fold induction at 50 µM with E. faecium (planktonic E. faecium, 384-well, cutoff for positive-scoring molecules 3-fold increase, read-out: AK-based Prestwick Library Screening Results: E. faecium (increase in extracellular AK activity)) is 0.9.
Consider `CC(=O)[C@H]1CC[C@H]2[C@@H]3CCC4=CC(=O)CC[C@]4(C)[C@H]3CC[C@]12C` [Progesterone], for which the fold induction at 50 µM in the assay on P. aeruginosa (planktonic, cutoff for positive 3-fold increase, read-out: AK-based Prestwick Library Screening Results, P. aeruginosa (fold increase in extracellular AK activity)) came out at 1; with K. pneumoniae (planktonic, cutoff for positive 3-fold increase, read-out: AK-based Prestwick Library Screening Results, K. pneumoniae (fold increase in extracellular AK activity)), 1.1; with E. coli (planktonic, cutoff for positive 3-fold increase, read-out: AK-based Prestwick Library Screening Results, E. coli (fold increase in extracellular AK activity)), 1; in the assay on E. cloacae (planktonic, cutoff for positive 3-fold increase, read-out: AK-based Prestwick Library Screening Results, E. cloacae (fold increase in extracellular AK activity)), 1.7; in assay [1] (planktonic, cutoff for positive 3-fold increase, read-out: AK-based Prestwick Library Screening Results, S. aureus (fold increase in extracellular AK activity)) it was 1.1; in assay [2] (planktonic, cutoff for positive 3-fold increase, read-out: AK-based Prestwick Library Screening Results, A. baumannii (fold increase in extracellular AK activity)) it was 1.1. Moreover, the fold induction at 50 µM in the assay with E. faecium (planktonic, cutoff for positive 3-fold increase, read-out: AK-based Prestwick Library Screening Results, E. faecium (fold increase in extracellular AK activity)) turned out to be 1.1.
Regarding `COc1c2occc2cc2ccc(=O)oc12` [Methoxy-8-psoralen], in the assay with P. aeruginosa (setting [10]), the “AK-based Prestwick Library Screening Results, P. aeruginosa (fold increase in extracellular AK activity)” value turned out to be 1.0. Moreover, the “AK-based Prestwick Library Screening Results, K. pneumoniae (fold increase in extracellular AK activity)” value in the assay with K. pneumoniae (setting [10]) came out at 0.9. The “AK-based Prestwick Library Screening Results, E. coli (fold increase in extracellular AK activity)” value with E. coli (setting [10]) was determined as 1.1. In addition, the “AK-based Prestwick Library Screening Results, E. cloacae (fold increase in extracellular AK activity)” value in the assay with E. cloacae (setting [10]) is on record as 1.5. For the same compound, the “AK-based Prestwick Library Screening Results, S. aureus (fold increase in extracellular AK activity)” value in assay [1] (setting [10]) amounted to 1.0. Besides, the “AK-based Prestwick Library Screening Results, A. baumannii (fold increase in extracellular AK activity)” value in assay [2] (setting [10]) came out at 1.0. Besides, the “AK-based Prestwick Library Screening Results, E. faecium (fold increase in extracellular AK activity)” value in the assay on E. faecium (setting [10]) was determined as 1.1.
